According to ChEMBL document CHEMBL5325431, “Synthesis of thieno[3,2-e]pyrrolo[1,2-a]pyrimidine derivatives and their precursors containing 2-aminothiophenes fragments as anticancer agents for therapy of pulmonary metastatic melanoma” (Eur J Med Chem, 2023):
Calls of active or inactive are those of the source. The calls are words filed in the database; no cut-off is given here.

What was measured:
[1] = Cytotoxicity against NF2-deficient mouse MEF cells assessed as cell survival incubated for 24 hrs by alamarblue staining based analysis; format: toxicity
[2] = tested on: B16-F10; experiment: Cytotoxicity against mouse B16-F10 cells assessed as inhibition of cell growth incubated for 24 hrs by alamarblue staining based assay; format: functional; settings: dose 0.28-55 µM
[3] = tested on: MEF; experiment: Cytotoxicity against NF2-deficient mouse MEF cells assessed as reduction in cell viability at 0.2 to 55 uM incubated for 24 hrs by alamarblue staining based analysis; format: toxicity; settings: dose 0.2-55 µM
[4] = tested on: B16-F10; experiment: Cytotoxicity against mouse B16-F10 cells assessed as cell death by measuring increase in red fluorescence at 0.5 to 10 uM by calcein AM/PI staining based confocal laser scanning microscopy analysis; format: functional; settings: dose 0.5-10 µM
[5] = tested on: B16-F10; experiment: Cytotoxicity against mouse B16-F10 cells assessed as cell death by measuring increase in red fluorescence at 10 uM by calcein AM/PI staining based confocal laser scanning microscopy analysis; format: functional
[6] = tested on: B16-F10; experiment: Induction of apoptosis in mouse B16-F10 cells assessed as early apoptotic cells at 5 uM measured after 48 hrs by Annexin V-FITC/7-AAD staining based flow cytometric analysis relative to control; format: functional
[7] = tested on: B16-F10; experiment: Induction of apoptosis in mouse B16-F10 cells assessed as late apoptotic cells at 5 uM measured after 48 hrs by Annexin V-FITC/7-AAD staining based flow cytometric analysis relative to control; format: functional
[8] = tested on: B16-F10; experiment: Induction of apoptosis in mouse B16-F10 cells assessed as late apoptotic cells at 10 uM measured after 48 hrs by Annexin V-FITC/7-AAD staining based flow cytometric analysis relative to control; format: functional
[9] = tested on: B16-F10; experiment: Induction of apoptosis in mouse B16-F10 cells assessed as necrotic cells at 10 uM measured after 48 hrs by Annexin V-FITC/7-AAD staining based flow cytometric analysis relative to control; format: functional
[10] = tested on: B16-F10; experiment: Induction of apoptosis in mouse B16-F10 cells assessed as viable cells at 15 uM measured after 48 hrs by Annexin V-FITC/7-AAD staining based flow cytometric analysis relative to control; format: functional; settings: read-out: Activity
[11] = tested on: B16-F10; experiment: Induction of apoptosis in mouse B16-F10 cells assessed as early apoptotic cells at 15 uM measured after 48 hrs by Annexin V-FITC/7-AAD staining based flow cytometric analysis relative to control; format: functional
[12] = tested on: B16-F10; experiment: Induction of apoptosis in mouse B16-F10 cells assessed as late apoptotic cells at 15 uM measured after 48 hrs by Annexin V-FITC/7-AAD staining based flow cytometric analysis relative to control; format: functional
[13] = tested on: B16-F10; experiment: Induction of apoptosis in mouse B16-F10 cells assessed as viable cells at 20 uM measured after 48 hrs by Annexin V-FITC/7-AAD staining based flow cytometric analysis relative to control; format: functional; settings: read-out: Activity
[14] = tested on: B16-F10; experiment: Induction of apoptosis in mouse B16-F10 cells assessed as early apoptotic cells at 20 uM measured after 48 hrs by Annexin V-FITC/7-AAD staining based flow cytometric analysis relative to control; format: functional
[15] = tested on: B16-F10; experiment: Induction of apoptosis in mouse B16-F10 cells assessed as necrotic cells at 20 uM measured after 48 hrs by Annexin V-FITC/7-AAD staining based flow cytometric analysis relative to control; format: functional
[16] = tested on: 4T1; experiment: Cytotoxicity against mouse 4T1 cells assessed as cell survival incubated for 24 hrs by alamarblue staining based analysis; format: functional; settings: 4T1, 24 h
[17] = tested on: CT26; experiment: Cytotoxicity against mouse CT26 cells assessed as cell survival incubated for 24 hrs by alamarblue staining based analysis; format: functional; settings: CT26, 24 h
[18] = Toxicity in C57BL/6 mouse assessed as body weight gain at 37 mg/kg, ip measured for 22 days; format: organism-based; settings: in vivo, 528 h, time 22 day
[19] = Toxicity in C57BL/6 mouse assessed as change in body temperature at 37 mg/kg, ip measured for 22 days; format: organism-based; settings: in vivo, 528 h, time 22 day
[20] = Toxicity in C57BL/6 mouse assessed as effect on ALT level at 37 mg/kg, ip measured for 22 days; format: organism-based; settings: in vivo, 528 h, time 22 day
[21] = Toxicity in C57BL/6 mouse assessed as effect on urea level at 37 mg/kg, ip measured for 22 days; format: organism-based; settings: in vivo, 528 h, time 22 day
[22] = tested on: B16-F10; experiment: Antitumor activity against metastatic mouse B16-F10 cells implanted in C57BL/6 mouse assessed as number of lung metastases at 9 to 9.5 mg/kg, ip administered for 12 days by histological analysis (reference value: 150 +/- 7); format: functional; settings: dose 9-9.5 mg/kg, time 12 day
[23] = tested on: B16-F10; experiment: Antitumor activity against metastatic mouse B16-F10 cells implanted in C57BL/6 mouse assessed as number of lung metastases at 9 to 9.5 mg/kg, ip administered for 15 days by histological analysis (reference value: 175 +/- 10); format: functional; settings: dose 9-9.5 mg/kg, time 15 day
[24] = tested on: B16-F10; experiment: Antitumor activity against metastatic mouse B16-F10 cells implanted in C57BL/6 mouse assessed as number of lung metastases at 9 to 9.5 mg/kg, ip administered for 19 days by histological analysis (reference value: 190 +/- 9); format: functional; settings: dose 9-9.5 mg/kg, time 19 day
[25] = tested on: B16-F10; experiment: Antitumor activity against metastatic mouse B16-F10 cells implanted in C57BL/6 mouse assessed as number of lung metastases at 9 to 9.5 mg/kg, ip administered for 22 days by histological analysis (reference value: 223 +/- 12); format: functional; settings: dose 9-9.5 mg/kg, time 22 day
[26] = tested on: B16-F10; experiment: Antitumor activity against metastatic mouse B16-F10 cells implanted in C57BL/6 mouse assessed as number of lung metastases at 4.6 to 42 mg/kg, ip administered every 3rd day for 22 days measured on day 23 by histological analysis (reference value: 223 +/- 12); format: functional; settings: dose 4.6-42 mg/kg, time 23 day
[27] = Toxicity in C57BL/6 mouse implanted with mouse B16-F10 cells assessed as liver damage at 4.6 to 42 mg/kg, ip by H and E staining based analysis; format: organism-based; settings: in vivo, dose 4.6-42 mg/kg
[28] = Toxicity in C57BL/6 mouse implanted with mouse B16-F10 cells assessed as kidney damage at 4.6 to 42 mg/kg, ip by H and E staining based analysis; format: organism-based; settings: in vivo, dose 4.6-42 mg/kg
[29] = Toxicity in C57BL/6 mouse implanted with mouse B16-F10 cells assessed as heart damage at 4.6 to 42 mg/kg, ip by H and E staining based analysis; format: organism-based; settings: in vivo, dose 4.6-42 mg/kg
[30] = Toxicity in C57BL/6 mouse implanted with mouse B16-F10 cells assessed as liver damage at 9 to 9.5 mg/kg, ip by H and E staining based analysis; format: organism-based; settings: in vivo, dose 9-9.5 mg/kg
[31] = Toxicity in C57BL/6 mouse implanted with mouse B16-F10 cells assessed as spleen damage at 9 to 9.5 mg/kg, ip by H and E staining based analysis; format: organism-based; settings: in vivo, dose 9-9.5 mg/kg
[32] = Toxicity in C57BL/6 mouse implanted with mouse B16-F10 cells assessed as kidney damage at 9 to 9.5 mg/kg, ip by H and E staining based analysis; format: organism-based; settings: in vivo, dose 9-9.5 mg/kg
[33] = Toxicity in C57BL/6 mouse implanted with mouse B16-F10 cells assessed as heart damage at 9 to 9.5 mg/kg, ip by H and E staining based analysis; format: organism-based; settings: in vivo, dose 9-9.5 mg/kg

| SMILES | IC50 at 24 h [1] [µM] | Activity [2] | Activity [3] | Activity [4] | Activity [5] | Activity [6] [%] | Activity [7] [%] | Activity [8] [%] | Activity [9] [%] | viability at 15 µM [10] [%] | Activity [11] [%] | Activity [12] [%] | viability at 20 µM [13] [%] | Activity [14] [%] | Activity [15] [%] | IC50 [16] [µM] | IC50 [17] [µM] | Activity [18] | Activity [19] | Activity [20] | other results |
| --- | --- | --- | --- | --- | --- | --- | --- | --- | --- | --- | --- | --- | --- | --- | --- | --- | --- | --- | --- | --- | --- |
| COc1ccc(C(=O)/C=C2\C(=O)C(C#N)=C3NC(=O)c4c(sc5c4CCCCC5)N32)cc1 | > 100 | Dose-Dependent Effect | Non-Toxic | Active | Active | 2.8 | 30.8 | 88.6 | 10.7 | 0.4 | 0.8 | 91.7 | 0.2 | 0.3 | 7.4 | 8.8 | 9.3 | Toxic | Non-Toxic | Non-Toxic | Activity [21]: Non-Toxic; Activity [22]: 143; Activity [23]: 120; Activity [24]: 87; Activity [25]: 75; Activity [26]: 55; Activity [27]: Non-Toxic; Activity [28]: Non-Toxic; Activity [29]: Non-Toxic; Activity [30]: Non-Toxic; Activity [31]: Non-Toxic; Activity [32]: Non-Toxic; Activity [33]: Non-Toxic |
| CCOC(=O)c1c(N2C(N)=C(C#N)C(=O)/C2=C\C(=O)c2ccc(C)cc2)sc2c1CCCCC2 | > 100 | Dose-Dependent Effect | Non-Toxic | Active | Active | 1.4 | 30.4 | 75.6 | 21.8 | 0.1 | 0.5 | 96.1 | 0.2 | 1 | 2.3 | 6.5 | 7.4 | Toxic | Non-Toxic | Non-Toxic | Activity [21]: Non-Toxic; Activity [22]: 145; Activity [23]: 105; Activity [24]: 67; Activity [25]: 40; Activity [26]: 29; Activity [27]: Non-Toxic; Activity [28]: Non-Toxic; Activity [29]: Non-Toxic; Activity [30]: Non-Toxic; Activity [31]: Non-Toxic; Activity [32]: Non-Toxic; Activity [33]: Non-Toxic |
| CCOC(=O)c1c(NC(=C\C(=O)c2ccc(OC)cc2)/C([O-])=C(\C#N)C(N)=O)sc2c1CCCC2.[K+] | > 100 | Dose-Dependent Effect | Non-Toxic | Active | Active | 2.2 | 43.5 | 85.3 | 14 | 0.3 | 0.5 | 94.3 | 0.3 | 0.8 | 3.8 | 3.8 | 4.3 | Toxic | Non-Toxic | Non-Toxic | Activity [21]: Non-Toxic; Activity [22]: 161; Activity [23]: 94; Activity [24]: 54; Activity [25]: 21; Activity [26]: ~10; Activity [27]: Non-Toxic; Activity [28]: Non-Toxic; Activity [29]: Non-Toxic; Activity [30]: Non-Toxic; Activity [31]: Non-Toxic; Activity [32]: Non-Toxic; Activity [33]: Non-Toxic |
